According to patent publication US20240336574A1 (LATIGO BIOTHERAPEUTICS, INC., priority 2021, published 2024):
Like-named read-outs stand apart in the source and are kept apart here.

Molecular target: T1, recombinant human NaV1.8 stably transfected HEK cells (Homo sapiens, UniProt Q9Y5Y9)
T1 construct: expressed in transfected cells; host or cells: HEK cells, stably transfected
Assay: Compound profiling on NaV1.8, human NaV1.8 cell line, SyncroPatch384PE automated patch clamp assay (Example 102, first set of compounds, Table 16)
Type: cell-based
Conditions: human NaV1.8 HEK cells, Table 16 (first set of compounds)
How it was run: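 IC50s come from two read-outs: resting-state block (P1, 10 mV step from −120 mV) and inactivated-state block (P2, after 10 s at −40 mV), scaled between DMSO and 250 μM tetracaine. Compounds (20–0.001 μM final, 1:3 steps) were applied for 5 min, 15 s sweeps. Cells kept at 30 °C the day before.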

[1] = inactivated state block (P2 measurement), read-out: P2IC50
[2] = resting state block (P1 measurement), read-out: P1IC50

T1 sequence (Q9Y5Y9 whole entry): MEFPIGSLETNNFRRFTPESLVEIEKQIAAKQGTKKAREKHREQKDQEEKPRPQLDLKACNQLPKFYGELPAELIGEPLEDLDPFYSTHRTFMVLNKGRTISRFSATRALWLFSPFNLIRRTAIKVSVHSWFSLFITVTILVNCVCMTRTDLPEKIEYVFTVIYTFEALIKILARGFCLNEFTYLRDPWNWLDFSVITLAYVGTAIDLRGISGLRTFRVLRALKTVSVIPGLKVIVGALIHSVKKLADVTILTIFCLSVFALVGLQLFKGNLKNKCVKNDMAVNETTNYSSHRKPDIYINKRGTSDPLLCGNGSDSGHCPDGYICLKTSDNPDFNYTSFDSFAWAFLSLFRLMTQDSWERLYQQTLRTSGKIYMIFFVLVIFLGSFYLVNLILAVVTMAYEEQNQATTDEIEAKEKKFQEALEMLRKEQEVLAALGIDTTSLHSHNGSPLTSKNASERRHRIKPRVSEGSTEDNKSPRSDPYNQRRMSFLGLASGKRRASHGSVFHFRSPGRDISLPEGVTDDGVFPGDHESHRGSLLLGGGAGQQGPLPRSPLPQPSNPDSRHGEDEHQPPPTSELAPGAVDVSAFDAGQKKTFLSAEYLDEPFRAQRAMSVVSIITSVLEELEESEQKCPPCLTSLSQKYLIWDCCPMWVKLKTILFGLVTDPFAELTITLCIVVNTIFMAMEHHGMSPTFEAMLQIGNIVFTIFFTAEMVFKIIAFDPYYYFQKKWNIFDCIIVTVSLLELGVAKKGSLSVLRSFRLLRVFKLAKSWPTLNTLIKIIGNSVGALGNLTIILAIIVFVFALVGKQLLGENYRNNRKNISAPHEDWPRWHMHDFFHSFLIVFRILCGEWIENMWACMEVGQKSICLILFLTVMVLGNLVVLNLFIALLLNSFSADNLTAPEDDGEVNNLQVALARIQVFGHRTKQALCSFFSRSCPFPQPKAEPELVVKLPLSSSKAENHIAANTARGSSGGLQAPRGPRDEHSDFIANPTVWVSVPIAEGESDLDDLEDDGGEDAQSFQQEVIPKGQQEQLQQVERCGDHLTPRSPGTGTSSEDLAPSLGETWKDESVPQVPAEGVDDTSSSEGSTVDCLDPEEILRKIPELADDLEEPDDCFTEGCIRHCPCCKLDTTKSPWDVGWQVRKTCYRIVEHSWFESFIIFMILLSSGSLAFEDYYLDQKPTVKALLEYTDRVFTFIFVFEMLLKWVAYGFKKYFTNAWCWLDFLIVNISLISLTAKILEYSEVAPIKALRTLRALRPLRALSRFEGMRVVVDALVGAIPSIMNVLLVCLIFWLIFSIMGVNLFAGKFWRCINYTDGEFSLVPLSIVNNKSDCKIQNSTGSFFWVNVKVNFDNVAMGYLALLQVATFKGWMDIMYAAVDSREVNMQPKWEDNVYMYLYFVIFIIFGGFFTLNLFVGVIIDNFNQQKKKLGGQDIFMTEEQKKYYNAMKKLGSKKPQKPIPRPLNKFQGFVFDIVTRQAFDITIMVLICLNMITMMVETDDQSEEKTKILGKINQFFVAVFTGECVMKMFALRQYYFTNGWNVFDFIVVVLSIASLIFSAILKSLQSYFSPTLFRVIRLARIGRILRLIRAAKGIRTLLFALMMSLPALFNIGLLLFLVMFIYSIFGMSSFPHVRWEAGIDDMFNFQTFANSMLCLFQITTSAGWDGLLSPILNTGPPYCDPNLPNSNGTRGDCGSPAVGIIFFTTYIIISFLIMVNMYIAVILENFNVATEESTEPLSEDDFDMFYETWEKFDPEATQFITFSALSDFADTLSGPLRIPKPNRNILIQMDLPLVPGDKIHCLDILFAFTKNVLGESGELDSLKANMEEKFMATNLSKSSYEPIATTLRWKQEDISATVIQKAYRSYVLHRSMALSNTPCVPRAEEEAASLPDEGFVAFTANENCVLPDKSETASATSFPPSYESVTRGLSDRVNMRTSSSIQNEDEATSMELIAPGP

| SMILES | IC50 [1] [nM] | IC50 [2] [nM] |
| --- | --- | --- |
| Cc1nc(OC2CCC2)ccc1Oc1nnc(C(F)(F)F)c(C)c1C(=O)Nc1cccc(S(C)(=N)=O)c1 (stereo not shown) [Compound 1498, 3-[(6-cyclobutoxy-2-methylpyridin-3-yl)oxy]-N-{3-[imino(methyl)oxo-λ^6-sulfanyl]phenyl}-5-methyl-6-(trifluoromethyl)pyridazine-4-carboxamide] | 40 to 200 | 40 to 200 |
| Cc1c(C(F)(F)F)nnc(Oc2ccc(OC(C)C)c(F)c2F)c1C(=O)Nc1cccc(S(C)(=N)=O)c1 (stereo not shown) [Compound 1501, 3-[2,3-difluoro-4-(propan-2-yloxy)phenoxy]-N-{3-[imino(methyl)oxo-λ^6-sulfanyl]phenyl}-5-methyl-6-(trifluoromethyl)pyridazine-4-carboxamide] | ≤ 20 | ≤ 20 |
| COc1ccc(Oc2nnc(C(F)(F)F)c(C)c2C(=O)Nc2cccc(S(C)(=N)=O)c2)c(C)c1F (stereo not shown) [Compound 1504, 3-(3-fluoro-4-methoxy-2-methylphenoxy)-N-{3-[imino(methyl)oxo-λ^6-sulfanyl]phenyl}-5-methyl-6-(trifluoromethyl)pyridazine-4-carboxamide] | ≤ 20 | ≤ 20 |
| COc1ccc(Oc2nnc(C(F)(F)F)c(C)c2C(=O)Nc2cccc(S(C)(=N)=O)c2)c(C)n1 (stereo not shown) [Compound 1507, N-{3-[imino(methyl)oxo-λ^6-sulfanyl]phenyl}-3-[(6-methoxy-2-methylpyridin-3-yl)oxy]-5-methyl-6-(trifluoromethyl)pyridazine-4-carboxamide] | 40 to 200 | 40 to 200 |
| Cc1c(C(F)(F)F)nnc(Oc2ccc(C(N)=O)cc2)c1C(=O)Nc1cccc(S(C)(=N)=O)c1 (stereo not shown) [Compound 1513, 3-(4-carbamoylphenoxy)-N-{3-[imino(methyl)oxo-λ^6-sulfanyl]phenyl}-5-methyl-6-(trifluoromethyl)pyridazine-4-carboxamide] | 200 to 500 | 200 to 500 |
| Cc1c(C(F)(F)F)nnc(Oc2c(F)cc(OC(F)(F)F)cc2F)c1C(=O)Nc1cccc(S(C)(=N)=O)c1 (stereo not shown) [Compound 1514, 3-[2,6-difluoro-4-(trifluoromethoxy)phenoxy]-N-{3-[imino(methyl)oxo-λ^6-sulfanyl]phenyl}-5-methyl-6-(trifluoromethyl)pyridazine-4-carboxamide] | 40 to 200 | 40 to 200 |
| Cc1c(Oc2nnc(C(F)(F)F)c(C)c2C(=O)Nc2cccc(S(C)(=N)=O)c2)ccc(OC(F)(F)F)c1F (stereo not shown) [Compound 1515, 3-[3-fluoro-2-methyl-4-(trifluoromethoxy)phenoxy]-N-{3-[imino(methyl)oxo-λ^6-sulfanyl]phenyl}-5-methyl-6-(trifluoromethyl)pyridazine-4-carboxamide] | ≤ 20 | ≤ 20 |
| COc1c(Oc2nnc3c(c2C(=O)Nc2cccc(S(C)(=N)=O)c2)CCC3)ccc(F)c1F (stereo not shown) [Compound 1516, 3-(3,4-difluoro-2-methoxyphenoxy)-N-{3-[imino(methyl)oxo-λ^6-sulfanyl]phenyl}-5H,6H,7H-cyclopenta[c]pyridazine-4-carboxamide] | 200 to 500 | 200 to 500 |
| COc1cc(F)ccc1Oc1nnc(C(F)(F)F)c(OC)c1C(=O)Nc1cccc([S@@](C)(=N)=O)c1 [Compound 1517, (S)-3-(4-fluoro-2-methoxyphenoxy)-5-methoxy-N-(3-(S-methylsulfonimidoyl)phenyl)-6-(trifluoromethyl)pyridazine-4-carboxamide] | 20 to 40 | ≤ 20 |
| CCc1c(C(F)(F)F)nnc(Oc2ccc(F)cc2OC)c1C(=O)Nc1cccc([S@@](C)(=N)=O)c1 [Compound 1518, (S)-5-ethyl-3-(4-fluoro-2-methoxyphenoxy)-N-(3-(S-methylsulfonimidoyl)phenyl)-6-(trifluoromethyl)pyridazine-4-carboxamide] | ≤ 20 | ≤ 20 |
| Cc1cc(F)ccc1Oc1nnc(C(F)(F)F)c(C2CC2)c1C(=O)Nc1cccc([S@@](C)(=N)=O)c1 [Compound 1519, (S)-5-cyclopropyl-3-(4-fluoro-2-methylphenoxy)-N-(3-(S-methylsulfonimidoyl)phenyl)-6-(trifluoromethyl)pyridazine-4-carboxamide] | 20 to 40 | 20 to 40 |
| Cc1cc(F)ccc1Oc1nnc(C(F)(F)F)c(-c2ccccc2)c1C(=O)Nc1cccc([S@@](C)(=N)=O)c1 [Compound 1520, (S)-3-(4-fluoro-2-methylphenoxy)-N-(3-(S-methylsulfonimidoyl)phenyl)-5-phenyl-6-(trifluoromethyl)pyridazine-4-carboxamide] | 200 to 500 | 200 to 500 |
| Cc1cc(F)ccc1Oc1nnc(C(F)(F)F)c(-c2cnn(C)c2)c1C(=O)Nc1cccc([S@@](C)(=N)=O)c1 [Compound 1521, (S)-3-(4-fluoro-2-methylphenoxy)-5-(1-methyl-1H-pyrazol-4-yl)-N-(3-(S-methylsulfonimidoyl)phenyl)-6-(trifluoromethyl)pyridazine-4-carboxamide] | 200 to 500 | 200 to 500 |
| Cc1cc(F)ccc1Oc1nnc(C(F)(F)F)c(NC2CC2)c1C(=O)Nc1cccc([S@@](C)(=N)=O)c1 [Compound 1522, (S)-5-(cyclopropylamino)-3-(4-fluoro-2-methylphenoxy)-N-(3-(S-methylsulfonimidoyl)phenyl)-6-(trifluoromethyl)pyridazine-4-carboxamide] | 200 to 500 | 200 to 500 |
| Cc1cc(F)ccc1Oc1nnc(C(F)(F)F)c(NC2CNC2)c1C(=O)Nc1cccc([S@@](C)(=N)=O)c1 [Compound 1523, (S)-5-(azetidin-3-ylamino)-3-(4-fluoro-2-methylphenoxy)-N-(3-(S-methylsulfonimidoyl)phenyl)-6-(trifluoromethyl)pyridazine-4-carboxamide] | 200 to 500 | 200 to 500 |
| Cc1cc(F)ccc1Oc1nnc(C(F)(F)F)c(N2CCOCC2)c1C(=O)Nc1cccc([S@@](C)(=N)=O)c1 [Compound 1524, (S)-3-(4-fluoro-2-methylphenoxy)-N-(3-(S-methylsulfonimidoyl)phenyl)-5-morpholino-6-(trifluoromethyl)pyridazine-4-carboxamide] | 200 to 500 | 200 to 500 |
| Cc1cc(C#N)ccc1Oc1nnc(C(F)(F)F)c(C)c1C(=O)Nc1cccc([S@@](C)(=N)=O)c1 [Compound 1525, 3-(4-cyano-2-methylphenoxy)-N-{3-[(S)-imino(methyl)oxo-λ^6-sulfanyl]phenyl}-5-methyl-6-(trifluoromethyl)pyridazine-4-carboxamide] | ≤ 20 | ≤ 20 |
| Cc1cc(C#N)ccc1Oc1nnc(C(F)(F)F)c(C)c1C(=O)Nc1cccc([S@](C)(=N)=O)c1 [Compound 1526, 3-(4-cyano-2-methylphenoxy)-N-{3-[(R)-imino(methyl)oxo-λ^6-sulfanyl]phenyl}-5-methyl-6-(trifluoromethyl)pyridazine-4-carboxamide] | ≤ 20 | ≤ 20 |
| COc1cc(C#N)ccc1Oc1nnc(-c2ccc(C#N)cc2)c(C)c1C(=O)Nc1ccc[n+]([O-])c1 [Compound 1527, 3-(4-cyano-2-methoxy-phenoxy)-6-(4-cyanophenyl)-5-methyl-N-(1-oxidopyridin-1-ium-3-yl)pyridazine-4-carboxamide] | 20 to 40 | 20 to 40 |
| COc1cc(C#N)ccc1Oc1nnc(C2CC2(F)F)c(C)c1C(=O)Nc1cccc([S@@](C)(=N)=O)c1 (stereo partly drawn) [Compound 1528, 3-(4-cyano-2-methoxyphenoxy)-6-(2,2-difluorocyclopropyl)-N-{3-[(S)-imino(methyl)oxo-λ^6-sulfanyl]phenyl}-5-methylpyridazine-4-carboxamide] | 40 to 200 | 40 to 200 |
| COc1cc(C#N)ccc1Oc1nnc(-c2ccc(C)cc2)c(C)c1C(=O)Nc1cccc([S@](C)(=N)=O)c1 [Compound 1529, 3-(4-cyano-2-methoxyphenoxy)-N-{3-[(R)-imino(methyl)oxo-λ6-sulfanyl]phenyl}-5-methyl-6-(4-methylphenyl)pyridazine-4-carboxamide] | ≤ 20 | ≤ 20 |
| COc1cc(C#N)ccc1Oc1nnc(-c2ccc(C)cc2)c(C)c1C(=O)Nc1cccc([S@@](C)(=N)=O)c1 [Compound 1530, 3-(4-cyano-2-methoxyphenoxy)-N-{3-[(S)-imino(methyl)oxo-λ^6-sulfanyl]phenyl}-5-methyl-6-(4-methylphenyl)pyridazine-4-carboxamide] | 40 to 200 | 40 to 200 |
| COc1cc(C#N)ccc1Oc1nnc(-c2ccc(C#N)cc2)c(C)c1C(=O)Nc1cccc([S@](C)(=N)=O)c1 [Compound 1531, (R)-3-(4-cyano-2-methoxyphenoxy)-6-(4-cyanophenyl)-5-methyl-N-(3-(S-methylsulfonimidoyl)phenyl)pyridazine-4-carboxamide] | 40 to 200 | 40 to 200 |
| COc1cc(C#N)ccc1Oc1nnc(-c2ccc(C#N)cc2)c(C)c1C(=O)Nc1cccc([S@@](C)(=N)=O)c1 [Compound 1532, 3-(4-cyano-2-methoxyphenoxy)-6-(4-cyanophenyl)-N-{3-[(S)-imino(methyl)oxo-λ^6-sulfanyl]phenyl}-5-methylpyridazine-4-carboxamide] | 40 to 200 | 40 to 200 |
| COc1cc(C#N)ccc1Oc1nnc(-c2ccc(C(F)F)cc2)c(C)c1C(=O)Nc1cccc([S@@](C)(=N)=O)c1 [Compound 1533, 3-(4-cyano-2-methoxyphenoxy)-6-[4-(difluoromethyl)phenyl]-N-{3-[(S)-imino(methyl)oxo-λ^6-sulfanyl]phenyl}-5-methylpyridazine-4-carboxamide] | 20 to 40 | 20 to 40 |
| COc1cc(C#N)ccc1Oc1nnc(-c2ccc(C(F)F)cc2)c(C)c1C(=O)Nc1cccc([S@](C)(=N)=O)c1 [Compound 1534, 3-(4-cyano-2-methoxyphenoxy)-6-[4-(difluoromethyl)phenyl]-N-{3-[(R)-imino(methyl)oxo-λ^6-sulfanyl]phenyl}-5-methylpyridazine-4-carboxamide] | 20 to 40 | 20 to 40 |
